Experimental data published in patent publication US20260317314A1, “NITROGEN-CONTAINING HETEROCYCLIC COMPOUND AND USE THEREOF” (JIANGSU DEYUAN PHARMACEUTICAL CO.,LTD., priority 2023, published 2026).
pIC50: −log10 of the molar value.

Key:
human CYP11B2 = target: T1, human CYP11B2 (Homo sapiens, UniProt P19099); experiment: In vitro activity assay of monoclonal cells overexpressing human CYP11B2; format: cell-based; details: G402 cells overexpressing human CYP11B2; substrate 11-deoxycorticosterone; 16 hours; aldosterone by LCMS/MS
T1 construct: expressed in transfected cells; host or cells: human renal leiomyoma G402 cell line (monoclonal cells overexpressing human CYP11B2)
T1 sequence (P19099 25-503): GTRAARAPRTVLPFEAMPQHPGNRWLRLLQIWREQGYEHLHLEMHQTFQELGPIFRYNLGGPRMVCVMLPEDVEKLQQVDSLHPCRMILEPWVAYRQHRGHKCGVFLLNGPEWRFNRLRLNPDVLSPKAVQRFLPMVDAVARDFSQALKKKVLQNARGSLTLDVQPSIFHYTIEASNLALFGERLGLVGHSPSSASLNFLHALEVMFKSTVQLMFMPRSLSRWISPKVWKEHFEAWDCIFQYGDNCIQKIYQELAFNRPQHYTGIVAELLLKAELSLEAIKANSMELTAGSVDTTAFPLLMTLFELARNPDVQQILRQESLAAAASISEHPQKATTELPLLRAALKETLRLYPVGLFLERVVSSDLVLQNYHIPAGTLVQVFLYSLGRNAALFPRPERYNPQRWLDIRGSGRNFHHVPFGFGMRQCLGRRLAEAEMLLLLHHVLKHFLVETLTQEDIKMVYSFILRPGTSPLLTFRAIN
Protocol: The human renal leiomyoma G402 cell line overexpressing human CYP11B2 was selected to serve as a compound activity screening system.
• 2) Compound details: The test compound was prepared as a 10 μM working concentration using DMSO.
Day 1: Cells were digested, and human renal leiomyoma G402 cells overexpressing human CYP11B2 were resuspended to 1×10^5 cells/mL, with 100 μL seeded into a 96-well plate.
Day 2: The medium was replaced with DMEM/F12 containing 2.5% charcoal-stripped fetal bovine serum; test compounds were added: 5 μL of test compound was added to the cell culture medium to achieve final concentrations of 10000, 2500, 625, 156.25, 39.06, 9.77, 2.44, 0.61, 0.15, and 0 nM (with a DMSO content of 0.1%).
After one hour, the substrate was added: 30 mM 11-deoxycorticosterone was diluted 1500-fold with culture medium, and 5 μL was dispensed per well to achieve a final concentration of […], followed by incubation for 16 hours.
(§1) Day 3: The cell supernatant was collected and added to 200 μL of a methanol solution containing internal standards (internal standards: 35 ng/mL ketoprofen or 7.5 ng/mL carbamazepine or 5 ng/mL diphenhydramine or 10 ng/mL tolbutamide). The mixture was vortexed and centrifuged (4000×g, 4° C., 5 minutes). Then, 100 μL of the supernatant was taken and mixed with 100 μL of pure water. The mixture was centrifuged (4000 g, 4° C., 15 min), and the supernatant was analyzed by ESI-LCMS/MS. • 4) Data analysis:
Ratio=Aldosterone peak area/Internal standard peak area
Control activity %=(Ratio test compound/Ratio DMSO)×100%
“Ratio test compound” represents the Ratio values at different concentrations of the test compound.
“Ratio DMSO” represents the Ratio value without the addition of the test compound. • X=Log (compound concentration) • Y=Control activity %
(§2) The IC50 of the test compound was determined by fitting to a nonlinear regression equation using XLfit 5.5.0.

human CYP11B1 = target: T2, human CYP11B1 (Homo sapiens, UniProt P15538); experiment: In vitro activity assay of monoclonal cells overexpressing human CYP11B1; format: cell-based; details: G402 cells overexpressing human CYP11B1; substrate 11-deoxycortisol 1 μM; 16 hours
T2 construct: expressed in transfected cells; host or cells: human renal leiomyoma G402 cell line (monoclonal cells overexpressing human CYP11B1)
T2 sequence (P15538 25-503): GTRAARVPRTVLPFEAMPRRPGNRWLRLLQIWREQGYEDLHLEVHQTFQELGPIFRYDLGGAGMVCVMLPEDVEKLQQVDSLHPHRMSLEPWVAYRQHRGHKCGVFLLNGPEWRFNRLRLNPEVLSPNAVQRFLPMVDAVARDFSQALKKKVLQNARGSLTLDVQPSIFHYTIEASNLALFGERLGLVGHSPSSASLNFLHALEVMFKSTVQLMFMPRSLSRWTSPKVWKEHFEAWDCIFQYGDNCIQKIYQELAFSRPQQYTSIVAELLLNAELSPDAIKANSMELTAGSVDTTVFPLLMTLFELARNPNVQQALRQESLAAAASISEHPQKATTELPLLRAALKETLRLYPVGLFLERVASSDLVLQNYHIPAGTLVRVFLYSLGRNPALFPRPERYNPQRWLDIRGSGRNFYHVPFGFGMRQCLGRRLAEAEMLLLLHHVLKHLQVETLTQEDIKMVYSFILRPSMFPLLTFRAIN
Protocol: The human renal leiomyoma G402 cell line overexpressing human CYP11B1 was selected to serve as a compound selectivity screening system. Details are as follows: • 1) The cells, reagents, and instrument information were consistent with Experimental Example 1 (activity of monoclonal cells overexpressing human CYP11B2). • 2) Compound details: The test compound was prepared as a […] working concentration using DMSO. • 3) Experimental procedure
Day 1: Cells were digested, and human renal leiomyoma G402 cells overexpressing CYP11B1 were resuspended to 1×10^5 cells/mL, with […] seeded into a 96-well plate.
Day 2: The medium was replaced with DMEM/F12 containing 2.5% charcoal-stripped fetal bovine serum.
After one hour, the substrate was added: 30 mM 11-deoxycortisol was diluted 1500-fold with culture medium, and 5 μL was dispensed per well to achieve a final concentration of 1 μM, followed by incubation for 16 hours.
as §1, with “The mixture was vortexed and centrifuged (4000×g, 4° C., 5 minutes). Then, 100 μL of the supernatant was taken and mixed with 100 μL of pure water.” left out, “analysis: […]” for “analysis:”
as §2

[1] = In vitro liver microsome metabolic stability study; format: in vitro ADME; details: human liver microsomes 0.5 mg/mL, compound 1 μM, 37° C., up to 60 minutes; read-out: Intrinsic hepatic clearance CLint(liver)
Protocol: Stock solution: 10 mM in DMSO.
Only 54 μL of microsomal working solution, 6 μL of NADPH regeneration system working solution, and 180 μL of stop solution were added to the blank plate.
LC-MS/MS analysis was performed.

CCC(=O)N[C@H]1CCOc2c(-c3ccc4c(c3)CCC(=O)N4C)cncc21 (single isomer, unassigned) [Compound 037]
pIC50 (human CYP11B2): 7.85 | pIC50 (human CYP11B1): 5.46 | CLint scaled at 1 µM [1]: < 8.6 mL/min/kg
